Patent US20210330611A1, “THERAPY FOR NEUROLOGICAL DISEASES/DISORDERS” (priority 2020, published 2021)
Where a name gives a salt, the structure may show the parent alone. Read-outs that look alike come from different tables or passages of the source.

What was measured:
Type in all cases: cell-based, rat
[1] = test system: LPS-induced microglia activation; assay: Image-based assay of LPS-induced microglia activation (HTS and dose response); details: for inhibition at 10 µM: read-out: LPS % inhibition; for LPS_HS: Hill slope of LPS dose response
[2] = test system: fibrin- and LPS-induced microglia activation; assay: cells
[3] = test system: fibrin-induced microglia activation; assay: Image-based assay of fibrin-induced microglia activation (HTS and dose response); details: for inhibition at 10 µM: read-out: Fibrin % inhibition; for fib_HS: Hill slope of fibrin dose response
[4] = primary microglia HTS, LPS stimulation, compounds at 10 μM
[5] = quadrant by fibrin and LPS inhibition, HTS at 10 μM
[6] = primary microglia HTS, fibrin stimulation, compounds at 10 μM
[7] = Rattus norvegicus, Microglia, 48 h
[8] = read-out: LPS IC50 (uM) (Suppl. Table 7)
[9] = read-out: Fibrin IC50 (uM) (Suppl. Table 7)
[10] = Table 7, fib = fibrin, LPS, tox = toxicity
[11] = Rattus norvegicus, Microglia, 48 h, primary microglia HTS, LPS stimulation, increased cell size (>800 μm^2) as marker of activation
[12] = quadrant by fibrin and LPS inhibition in HTS of 1907 compounds
[13] = Rattus norvegicus, Microglia, primary microglia HTS, fibrin stimulation, increased cell size (>800 μm^2) as marker of activation

Adipic Acid, Hexanedioic Acid
LPS % inhibition [1, 4]: 8% | Quadrant (FIG. 5b) [2, 5]: Q4 | Fibrin % inhibition [3, 6]: −24%

CN1[C@@H]2C[C@@H](OC(=O)[C@H](CO)c3ccccc3)C[C@H]1[C@@H]1O[C@@H]12 [Scopolamine]
LPS % inhibition [1]: −6% | Quadrant (FIG. 5b) [2]: Q4 | Fibrin % inhibition [3]: −26%

CC(C)(CO)[C@@H](O)C(=O)NCCC(=O)NCCSSCCNC(=O)CCNC(=O)[C@H](O)C(C)(C)CO [Pantethine]
inhibition at 10 µM [1, 7]: 7% | Quadrant (FIG. 5b) [2]: Q4 | inhibition at 10 µM ([3]; Rattus norvegicus, Microglia): -53%

CN1CCc2cccc3c2[C@H]1Cc1ccc(O)c(O)c1-3.Cl [R(−)-Apomorphine hydrochloride, reference compound]
LPS % inhibition [1]: 18% | IC50 ([1]; Table 1, dose response 0.001-20 μM, triplicates, primary rat microglia, 48 h, read-out: LPS IC50): 14 µM | IC50 ([1]; read-out: LPS IC50): 14 µM | IC50 [1, 8]: 14 µM | Cherry-picked Hit (Suppl. Table 7) [2]: HIT (key: HIT: Hits were defined as molecules that exhibited greater than 50% inhibition of either fibrin or LPS activation) | Hit [2]: HIT (key: HIT: Hits were defined as molecules that exhibited greater than 50% inhibition of either fibrin or LPS activation) | Quadrant (FIG. 5b) [2]: Q3 | Quadrant (FIG. 5b) ([2]; Table 1, screen at 10 μM): Q3 | Fibrin % inhibition [3]: 63% | IC50 ([3]; Table 1, dose response 0.001-20 μM, triplicates, primary rat microglia, 48 h, read-out: Fibrin IC50): > 20 µM | IC50 ([3]; read-out: Fibrin IC50): > 20 µM | IC50 [3, 9]: > 20 µM

COc1cc2c(c(OC)c1OC)-c1ccc(=O)c(O)cc1[C@@H](NC(C)=O)CC2 [colchiceine]
IC50 ([1]; Rattus norvegicus, Microglia, Table 7, read-out: LPS_IC50): 0.82 µM | Activity [2, 10]: fib/LPS | IC50 ([3]; Rattus norvegicus, Microglia, Table 7, read-out: fib_IC50): 0.625 µM

CN(C)CCOC(c1ccccc1)c1ccccc1 [Diphenhydramine]
inhibition at 10 µM ([1]; Rattus norvegicus, Microglia): 15% | Quadrant (FIG. 5b) [2]: Q4 | inhibition at 10 µM ([3]; Rattus norvegicus, Microglia): -47%

Cc1cc(NS(=O)(=O)c2ccc(N)cc2)no1 [Sulfamethoxazole]
inhibition at 10 µM ([1]; Rattus norvegicus, Microglia): 17% | Quadrant (FIG. 5b) [2]: Q4 | inhibition at 10 µM ([3]; Rattus norvegicus, Microglia): -17%

CNCCC(Oc1ccc(C(F)(F)F)cc1)c1ccccc1.Cl (centres unmarked) [Fluoxetine Hydrochloride, Fluoxetine]
LPS % inhibition [1]: 65% | Quadrant (FIG. 5b) [2]: Q1 | Fibrin % inhibition [3]: 46%

FluoromethoIone [reference compound]
LPS_HS ([1]; Table 7): 0.00 | LPS specificity ([1]; Table 7): 1.0 | Quadrant (FIG. 5b) ([2]; Table 2, screen at 10 μM): Q2 | Activity [2, 10]: fib/LPS | fib_HS ([3]; Table 7): −0.27 | fib specificity ([3]; Table 7): 1.0

CN1[C@@H]2C[C@@H](OC(=O)[C@H](CO)c3ccccc3)C[C@H]1[C@@H]1O[C@@H]12 [Scopolamine Hydrobromide]
LPS % inhibition [1]: 3% | Quadrant (FIG. 5b) [2]: Q4 | Fibrin % inhibition [3]: 5%

Nc1ccc(S(N)(=O)=O)cc1 [Sulfanilamide]
inhibition at 10 µM ([1]; Rattus norvegicus, Microglia): 11% | Quadrant (FIG. 5b) [2]: Q4 | inhibition at 10 µM ([3]; Rattus norvegicus, Microglia): -14%

O=C(O)c1cccnc1 [Niacin]
inhibition at 10 µM [1, 7]: 13% | Quadrant (FIG. 5b) [2]: Q4 | inhibition at 10 µM ([3]; Rattus norvegicus, Microglia): 8%

C[C@]12CC[C@@H]3c4ccc(O)cc4CC[C@H]3[C@@H]1C[C@H](O)[C@@H]2O [Epiestriol]
inhibition at 10 µM ([1]; Rattus norvegicus, Microglia): 6% | Quadrant (FIG. 5b) [2]: Q4 | inhibition at 10 µM ([3]; Rattus norvegicus, Microglia): -25%

CCOP(=S)(OCC)Oc1ccc2c(C)c(Cl)c(=O)oc2c1 [Coumophos]
LPS % inhibition [1, 4]: 16% | Quadrant (FIG. 5b) ([2]; classification by fibrin and LPS inhibition, HTS at 10 μM): Q4 | Fibrin % inhibition [3, 6]: −12%

NS(=O)(=O)c1cc(C(=O)O)c(NCc2ccco2)cc1Cl [Furosemide]
inhibition at 10 µM [1, 7]: 25% | Quadrant (FIG. 5b) [2]: Q4 | inhibition at 10 µM ([3]; Rattus norvegicus, Microglia): -5%

Cc1cc(C(C)(C)C)c(O)c(C(C)(C)C)c1
LPS % inhibition [1, 4]: 5% | Quadrant (FIG. 5b) [2, 5]: Q4 | Fibrin % inhibition [3, 6]: −4%

CCCCC(C)(O)C/C=C/[C@H]1[C@H](O)CC(=O)[C@@H]1CCCCCCC(=O)OC (mixture of isomers) [Misoprostol]
inhibition at 10 µM [1, 11]: 32% | Quadrant (FIG. 5b) [2, 12]: Q4 | inhibition at 10 µM [3, 13]: 13%

CC(N)C(O)c1ccccc1 (centres unmarked) [Phenylpropanolamine]
inhibition at 10 µM [1, 7]: -6% | Quadrant (FIG. 5b) [2]: Q4 | inhibition at 10 µM ([3]; Rattus norvegicus, Microglia): -2%

Nc1nc2nc[nH]c2c(=S)[nH]1 [Tioguanine]
inhibition at 10 µM ([1]; Rattus norvegicus, Microglia): 18% | Quadrant (FIG. 5b) [2]: Q4 | inhibition at 10 µM ([3]; Rattus norvegicus, Microglia): 12%

podophyllotoxin acetate
LPS_HS ([1]; Table 7): −0.87 | LPS specificity ([1]; Table 7): 1.8 | IC50 ([1]; Table 7, read-out: LPS_IC50): 0.012 µM | Activity [2, 10]: fib/LPS | fib_HS ([3]; Table 7): −1.10 | fib specificity ([3]; Table 7): 0.5

CCN(CC)CC(=O)Nc1c(C)cccc1C [Lidocaine]
inhibition at 10 µM [1, 7]: 8% | Quadrant (FIG. 5b) [2]: Q4 | inhibition at 10 µM ([3]; Rattus norvegicus, Microglia): -23%

CCC[C@@H]1C[C@@H](C(=O)N[C@@H]([C@H]2O[C@H](SC)[C@H](O)[C@@H](O)[C@H]2O)[C@H](C)Cl)N(C)C1 [Clindamycin Hydrochloride]
inhibition at 10 µM ([1]; Rattus norvegicus, Microglia): 7% | Quadrant (FIG. 5b) [2]: Q4 | inhibition at 10 µM ([3]; Rattus norvegicus, Microglia): -44%

O=C(CCCN1CC=C(n2c(=O)[nH]c3ccccc32)CC1)c1ccc(F)cc1 [Droperidol]
inhibition at 10 µM ([1]; Rattus norvegicus, Microglia): 20% | Quadrant (FIG. 5b) [2]: Q4 | inhibition at 10 µM ([3]; Rattus norvegicus, Microglia): -3%

CC(C)(C)c1ccc(C(O)CCCN2CCC(C(O)(c3ccccc3)c3ccccc3)CC2)cc1 (centres unmarked) [Terfenadine]
inhibition at 10 µM ([1]; Rattus norvegicus, Microglia): 7% | Quadrant (FIG. 5b) [2]: Q4 | inhibition at 10 µM ([3]; Rattus norvegicus, Microglia): 19%

CC(C)NCC(O)COc1cccc2ccccc12 (centres unmarked)
inhibition at 10 µM ([1]; Rattus norvegicus, Microglia): -5% | Quadrant (FIG. 5b) [2]: Q4 | Fibrin % inhibition ([3]; 10 µM): −18%

C[C@H](N)[C@H](O)c1ccccc1.Cl
LPS % inhibition [1]: 7% | Quadrant (FIG. 5b) [2]: Q4 | Fibrin % inhibition [3]: −15%

CC(=O)OCC(=O)[C@@]12OC(C)(C)O[C@@H]1C[C@H]1[C@@H]3C[C@H](F)C4=CC(=O)C=C[C@]4(C)[C@@]3(F)[C@@H](O)C[C@@]12C [Fluocinonide, reference compound]
inhibition at 10 µM [1, 7]: 106% | IC50 ([1]; Rattus norvegicus, Microglia, read-out: LPS_IC50 (uM)): 0.002 µM | Activity [2]: fib/LPS | Quadrant (FIG. 5b) [2]: Q2 | inhibition at 10 µM ([3]; Rattus norvegicus, Microglia): 112% | IC50 ([3]; Rattus norvegicus, Microglia, read-out: fib_IC50 (uM)): 0.002 µM

Cc1nccn1CC1CCc2c(c3ccccc3n2C)C1=O (centres unmarked) [Ondansetron]
inhibition at 10 µM [1, 11]: 14% | inhibition at 10 µM ([1]; Rattus norvegicus, Microglia, primary microglia HTS, LPS stimulation, compounds at 10 μM): 92% | Quadrant (FIG. 5b) [2, 12]: Q4 | Quadrant (FIG. 5b) [2, 5]: Q2 | inhibition at 10 µM ([3]; Rattus norvegicus, Microglia, primary microglia HTS, fibrin stimulation, compounds at 10 μM): 106% | inhibition at 10 µM [3, 13]: -6%

Nc1cc(N2CCCCC2)nc(N)[n+]1[O-] [Minoxidil]
inhibition at 10 µM [1, 11]: 9% | Quadrant (FIG. 5b) [2, 12]: Q4 | inhibition at 10 µM [3, 13]: -5%

CN(C)c1ccc(O)c2c1C[C@H]1C[C@H]3[C@H](N(C)C)C(O)=C(C(N)=O)C(=O)[C@@]3(O)C(O)=C1C2=O [Minocycline]
inhibition at 10 µM [1, 11]: 16% | Quadrant (FIG. 5b) [2, 12]: Q4 | inhibition at 10 µM [3, 13]: -6%

CC(C)c1c(C(=O)Nc2ccccc2)c(-c2ccccc2)c(-c2ccc(F)cc2)n1CC[C@@H](O)C[C@@H](O)CC(=O)[O-].CC(C)c1c(C(=O)Nc2ccccc2)c(-c2ccccc2)c(-c2ccc(F)cc2)n1CC[C@@H](O)C[C@@H](O)CC(=O)[O-].[Ca+2] [Atorvastatin calcium, reference compound]
LPS % inhibition [1]: 88% | IC50 ([1]; read-out: LPS IC50): 3 µM | IC50 [1, 8]: 3 µM | Cherry-picked Hit (Suppl. Table 7) [2]: HIT (key: HIT: Hits were defined as molecules that exhibited greater than 50% inhibition of either fibrin or LPS activation) | Hit [2]: HIT (key: HIT: Hits were defined as molecules that exhibited greater than 50% inhibition of either fibrin or LPS activation) | Quadrant (FIG. 5b) [2]: Q2 | IC50 ([3]; read-out: Fibrin IC50): 0.6 µM | IC50 [3, 9]: 0.6 µM
